The target of this assay is T1, Neuropeptide Y receptor type 2 (Homo sapiens, UniProt P49146).
T1 sequence (P49146 whole entry): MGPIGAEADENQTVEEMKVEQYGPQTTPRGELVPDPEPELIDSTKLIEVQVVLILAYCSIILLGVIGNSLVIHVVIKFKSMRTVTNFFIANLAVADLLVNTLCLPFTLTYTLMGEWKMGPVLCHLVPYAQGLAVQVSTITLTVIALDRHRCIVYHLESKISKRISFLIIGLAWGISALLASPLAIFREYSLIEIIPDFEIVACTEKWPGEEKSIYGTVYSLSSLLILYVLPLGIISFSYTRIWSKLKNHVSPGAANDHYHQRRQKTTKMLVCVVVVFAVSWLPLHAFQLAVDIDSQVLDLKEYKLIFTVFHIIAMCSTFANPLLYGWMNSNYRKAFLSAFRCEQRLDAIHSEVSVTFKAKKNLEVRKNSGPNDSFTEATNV
Description: Binding affinity against SMS-KAN cell membranes endogenously expressing Neuropeptide Y receptor type 2 using [125I]PYY as radioligand.
The molecule `CN(C)CCCN(C(=O)c1cc2ccccc2s1)c1ccccc1-c1ccccc1` yielded an IC50 of more than 10 µM.
In the case of `CNCCCN(C(=O)c1cc2ccccc2s1)c1ccccc1SCc1ccccc1` it was more than 10 µM.
In turn, `CN(C)CCCN(C(=O)[C@@H]1C[C@H]1c1ccccc1)c1ccccc1SCc1ccccc1` had an IC50 of 3.7 µM.
As for `CC(C(=O)N(CCCN(C)C)c1ccccc1SCc1ccccc1)c1ccccc1` (stereo not drawn), the IC50 turned out to be 1 µM.
In the case of `CN(C)CCCCN(C(=O)c1cc2ccccc2s1)c1ccccc1SCc1ccccc1` it was more than 10 µM; in that of `CN(C)CCCN(C(=O)c1cc2ccccc2o1)c1ccccc1SCc1ccccc1`, more than 10 µM.
To `CN(C)CCCN(C(=O)/C=C/c1ccccc1)c1ccccc1SCc1ccccc1` belongs 10 µM; to `CN(C)CCCN(C(=O)c1cc2ccccc2s1)c1ccccc1CCc1ccccc1`, more than 10 µM; to `CN(C)CCN(C(=O)c1cc2ccccc2s1)c1ccccc1SCc1ccccc1`, more than 10 µM.
In turn, `CN(C)CCCN(C(=O)c1cc2ccccc2s1)c1ccccc1NC(=O)c1ccccc1` displayed an IC50 of more than 10 µM.
In the case of `CN(C)CCCN(C(=O)c1cc2ccccc2s1)c1ccccc1Cc1ccccc1` it was more than 10 µM.
Regarding `CCCCc1ccccc1N(CCCN(C)C)C(=O)c1cc2ccccc2s1`, the IC50 worked out at 2.2 µM.
To `CN(C)CCCN(C(=O)c1sc2ccccc2c1Cl)c1ccccc1SCc1ccccc1` belongs more than 10 µM.

The values above are taken from ChEMBL document CHEMBL1136181, “Differentially functionalized diamines as novel ligands for the NPY2 receptor” (Bioorg Med Chem Lett, 2003).
